Measurements published in publication PMC6429222, “The Oligomeric State of the Plasma Membrane H^+-ATPase from Kluyveromyces lactis” (Molecules, 2019).
Several values for one entry are separate records, joined by “and”; a condition that tells them apart may be missing. Identical values can stand only once.

T1: plasma membrane H^+-ATPase hexamer, aggregated (large MAS, Peak 1) (Kluyveromyces lactis, UniProt P49380)
T1 construct: gene PMA1; Superose 6 Peak 1, aggregated hexamers; monomer ~100 kDa; no tag
T1 sequence (P49380 1-899): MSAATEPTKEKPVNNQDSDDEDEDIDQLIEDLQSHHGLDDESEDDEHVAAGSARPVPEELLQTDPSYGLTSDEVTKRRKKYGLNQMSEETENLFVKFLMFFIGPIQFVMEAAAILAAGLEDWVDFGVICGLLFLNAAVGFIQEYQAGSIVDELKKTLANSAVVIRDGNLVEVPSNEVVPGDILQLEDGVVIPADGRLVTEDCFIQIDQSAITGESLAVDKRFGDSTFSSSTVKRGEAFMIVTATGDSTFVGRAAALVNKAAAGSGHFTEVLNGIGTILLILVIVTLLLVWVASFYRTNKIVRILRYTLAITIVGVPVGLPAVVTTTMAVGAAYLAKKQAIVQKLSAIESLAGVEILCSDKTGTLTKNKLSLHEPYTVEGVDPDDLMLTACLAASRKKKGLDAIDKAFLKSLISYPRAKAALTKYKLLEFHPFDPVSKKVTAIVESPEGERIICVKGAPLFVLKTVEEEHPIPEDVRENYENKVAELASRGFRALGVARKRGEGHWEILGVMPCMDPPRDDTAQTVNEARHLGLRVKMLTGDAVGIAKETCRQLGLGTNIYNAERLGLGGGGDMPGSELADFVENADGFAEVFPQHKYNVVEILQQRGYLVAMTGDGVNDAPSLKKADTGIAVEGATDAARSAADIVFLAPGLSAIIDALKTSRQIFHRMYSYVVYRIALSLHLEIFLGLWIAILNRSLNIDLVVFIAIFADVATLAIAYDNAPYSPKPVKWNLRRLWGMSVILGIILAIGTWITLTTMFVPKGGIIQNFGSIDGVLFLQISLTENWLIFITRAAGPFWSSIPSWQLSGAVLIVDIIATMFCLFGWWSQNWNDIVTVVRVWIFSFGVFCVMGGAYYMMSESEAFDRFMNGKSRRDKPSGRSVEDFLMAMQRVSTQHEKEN

T2: plasma membrane H^+-ATPase hexamer, free (small MAS, Peak 2) (Kluyveromyces lactis, UniProt P49380)
T2 construct: gene PMA1; Superose 6 Peak 2, mainly free hexamers with minor monomer, dimer, tetramer; monomer ~100 kDa; no tag
T2 sequence (P49380 1-899): T1 sequence (P49380 1-899)

B1: plasma membrane H^+-ATPase hexamer, aggregated (large MAS, Peak 1) (Kluyveromyces lactis NRRL Y-1140) (protein)
chain: T1 sequence (P49380 1-899)
notes: Superose 6 Peak 1, aggregated hexamers; monomer ~100 kDa; no tag
B2: plasma membrane H^+-ATPase from Kluyveromyces lactis (enzyme, UniProt P49380 1-899, looked up)
chain: T1 sequence (P49380 1-899)
notes: plasma membrane H^+-ATPase (Pma1) of Kluyveromyces lactis, endogenous enzyme; monomer band of ~100 kDa on SDS-PAGE; also called Pma1; H^+-ATPase hexamer; source: also in isolated plasma membranes treated with DDM
B3: plasma membrane H^+-ATPase hexamer, free (small MAS, Peak 2) (Kluyveromyces lactis NRRL Y-1140) (protein)
chain: T1 sequence (P49380 1-899)
notes: Superose 6 Peak 2, mainly free hexamers with minor monomer, dimer, tetramer; monomer ~100 kDa; no tag

Columns and labels:
[1] = target: T1, plasma membrane H^+-ATPase hexamer, aggregated (large MAS, Peak 1); experiment: intrinsic Trp fluorescence quenching titration, Hill-type fit; assay type: binding
[2] = target: T2, plasma membrane H^+-ATPase hexamer, free (small MAS, Peak 2); experiment: as above; assay type: binding
purified protein = substrate: Nc1ncnc2c1ncn2[C@@H]1O[C@H](COP(=O)(O)OP(=O)(O)OP(=O)(O)O)[C@@H](O)[C@H]1O; experiment: purified protein; assay type: biochemical, Kluyveromyces lactis; conditions: 25 °C, cooperative
[3] = target: the molecule itself; experiment: native gel or EMSA; BN-PAGE of SEC Peak 2 fractions (33-37); 4-15% gradient gel with 0.1 M trehalose; sample buffer 25 mM imidazole, 0.3 M trehalose, 0.25% DDM, 0.025% Coomassie blue, pH 7.0; 4 °C; silver stain
[4] = target: the molecule itself; experiment: native gel or EMSA; BN-PAGE of SEC Peak 1 fractions (23-26); 4-15% gradient gel with 0.1 M trehalose; sample buffer 25 mM imidazole, 0.3 M trehalose, 0.25% DDM, 0.025% Coomassie blue, pH 7.0; 4 °C; silver stain

Molecule	Kd [1]	Kd [2]	also measured
Nc1ncnc2c1ncn2[C@@H]1O[C@H](COP(=O)(O)OP(=O)(O)CP(=O)(O)O)[C@@H](O)[C@H]1O [AMP-PCP]	73.3 ± 5.8 µM	106 ± 12.6 µM	
Nc1ncnc2c1ncn2[C@@H]1O[C@H](COP(=O)(O)OP(=O)(O)O)[C@@H](O)[C@H]1O [ADP]	136 ± 7.8 µM	190 ± 13.9 µM	
B1			K0.5 (purified protein; Hill n = 1.98 ± 0.21): 329 ± 19 µM
B2			stoichiometry N [3]: 2 and 4; stoichiometry N [4]: 6
B3			K0.5 (purified protein; Hill n = 1.82 ± 0.22): 364 ± 28 µM
